Source: US20170010272A1, “RAPID PHENOTYPE TESTS FOR ANTI[…] SENSITIVITY AND RESISTANCE” (STC, UNM, priority 2014, published 2017)
Read-outs that look alike come from different tables or passages of the source.

Key:
[1] = target: deazaflavin (F420) dependent nitroreductase (Ddn) (Mycobacterium tuberculosis, UniProt P9WP15); experiment: activation of nitroimidazoles to NO• by Ddn; format: biochemical; settings: for activation to NO• by Ddn: FIG. 2; for Ddn mediated production of ^15NO•: FIG. 4
[2] = oral pyrazinamide, metabolite pyrazinoic acid formed by host hepatic microsomal deamidase, cited from earlier work

deazaflavin (F420) dependent nitroreductase (Ddn), sequence (P9WP15 whole entry): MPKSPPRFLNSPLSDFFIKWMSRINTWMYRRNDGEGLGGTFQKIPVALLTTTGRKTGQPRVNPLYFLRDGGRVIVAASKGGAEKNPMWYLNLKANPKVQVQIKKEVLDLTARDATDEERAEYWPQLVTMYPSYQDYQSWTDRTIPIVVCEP

## C[C@]1(COc2ccc(N3CCC(Oc4ccc(OC(F)(F)F)cc4)CC3)cc2)Cn2cc([N+](=O)[O-])nc2O1 [OPC67683]
[1]
  activation to NO• by Ddn: activation of PA824 and OPC67683 to NO• by Ddn

## O=[N+]([O-])c1cn2c(n1)OC[C@@H](OCc1ccc(OC(F)(F)F)cc1)C2 [PA824]
[1]
  activation to NO• by Ddn: activation of PA824 and OPC67683 to NO• by Ddn

## NC(=O)c1cnccn1 [PZA, pyrazinamide]
[2]
  time of peak POA (metabolite) levels after oral dosage: ~6 h
[2]; listed as pyrazinamide
  time of peak POA (metabolite) levels after oral dosage: around six

## CC1(COc2ccc(N3CCC(Oc4ccc(OC(F)(F)F)cc4)CC3)cc2)Cn2cc([15N+](=O)[O-])nc2O1 (stereo not drawn) [^15N-nitro-OPC67683]
[1]
  Ddn mediated production of ^15NO•: Ddn mediated production of ^15NO•

## O=[15N+]([O-])c1cn2c(n1)OC[C@@H](OCc1ccc(OC(F)(F)F)cc1)C2 [^15N-nitro-PA824]
[1]
  Ddn mediated production of ^15NO•: Ddn mediated production of ^15NO•
